This is an account of results in patent US20230257351A1, “SUBSTITUTED N-[…] HAVING P2X4 RECEPTOR ANTAGONISTIC ACTIVITY” (Bayer Aktiengesellschaft, priority 2020, published 2023).

The test deals with T1, human P2X4 (Homo sapiens, UniProt Q99571).
T1 construct: expressed in transfected cells
T1 sequence (Q99571 1-388): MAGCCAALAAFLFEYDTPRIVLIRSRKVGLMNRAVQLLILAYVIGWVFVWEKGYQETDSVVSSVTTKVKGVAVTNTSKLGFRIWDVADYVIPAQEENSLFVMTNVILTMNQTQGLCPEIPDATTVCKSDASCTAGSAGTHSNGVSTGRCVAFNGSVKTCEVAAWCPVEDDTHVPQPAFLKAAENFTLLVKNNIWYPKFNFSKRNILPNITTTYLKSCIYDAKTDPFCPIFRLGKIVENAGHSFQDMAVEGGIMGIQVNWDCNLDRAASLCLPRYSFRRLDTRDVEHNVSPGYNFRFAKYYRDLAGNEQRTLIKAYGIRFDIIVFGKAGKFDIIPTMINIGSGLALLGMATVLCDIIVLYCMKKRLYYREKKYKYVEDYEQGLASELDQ
Put plainly: Human P2X4 HEK Cell FLIPR Assay. The note with it: HEK293 stably expressing human P2X4, agonist Bz-ATP 3 μM (EC80); for pIC50: read-out: Human P2X4 HEK Cells (FLIPR Assay) avg IC50. Format: cell-based. The essentials: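 Compounds were preincubated 30 min at room temperature on Fluo8-AM-loaded HEK293 cells stably expressing human P2X4. The response was the calcium fluorescence rise on Bz-ATP addition.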

pIC50: −log10 of the molar value.

For the molecule `CC(=O)N(c1ccc(C)c(Cl)c1)c1cc(NC(=O)Cc2c(Cl)cccc2Cl)ccn1` [Example 182, N-(3-Chlor-4-methylphenyl)-N-{4-[2-(2,6-dichlorphenyl)acetamido]pyridin-2-yl}acetamide], the “Human P2X4 HEK Cells (FLIPR Assay) avg Efficacy” value (shortened to “Human P2X4 HEK Cells”) is given as 102% and the pIC50 (in general, −log10 of the IC50, conventionally taken in molar units) is 6.23.
The corresponding values for `CC(=O)N(c1ccc(C)c(Cl)c1)c1cc(NC(=O)Cc2c(F)cccc2Cl)ccn1` [Example 183, N-{4-[2-(2-Chlor-6-fluorphenyl)acetamido]pyridin-2-yl}-N-(3-chlor-4-methylphenyl)acetamide] are 101% and 6.22.
The corresponding values for `CC(=O)N(c1cc(NC(=O)Cc2c(F)cccc2Cl)ccn1)c1ccc(F)c(C)c1C` [Example 184, N-{4-[2-(2-Chlor-6-fluorphenyl)acetamido]pyridin-2-yl}-N-(4-fluor-2,3-dimethylphenyl)acetamide] are 104% and 6.05.
The corresponding values for `CC(=O)N(c1ccccc1)c1cc(NC(=O)Cc2c(Cl)cccc2Cl)cnn1` [Example 185, N-{5-[2-(2,6-dichlorophenyl)acetamido]pyridazin-3-yl}-N-phenylacetamide] are 101% and 6.36.
Take `CC(=O)N(c1ccccc1)c1cc(NC(=O)Cc2cccc(F)c2Cl)cnn1` [Example 186, N-{5-[2-(2-chloro-3-fluorophenyl)acetamido]pyridazin-3-yl}-N-phenylacetamide]: the “Human P2X4 HEK Cells” value amounted to 99% and the pIC50 is 6.18.
Regarding `CC(=O)N(c1ccccc1)c1cc(NC(=O)Cc2ccccc2Cl)cnn1` [Example 187, N-{5-[2-(2-chlorophenyl)acetamido]pyridazin-3-yl}-N-phenylacetamide], the “Human P2X4 HEK Cells” value worked out at 100% and the pIC50 is 6.15.
The corresponding values for `CC(=O)N(c1ccccc1)c1cc(NC(=O)Cc2ccc(F)cc2Cl)cnn1` [Example 188, N-{5-[2-(2-chloro-4-fluorophenyl)acetamido]pyridazin-3-yl}-N-phenylacetamide] are 98% and 6.08.
`CC(=O)N(c1ccc(F)cc1)c1cc(NC(=O)Cc2c(F)cccc2Cl)cnn1` [Example 189, N-{5-[2-(2-chloro-6-fluorophenyl)acetamido]pyridazin-3-yl}-N-(4-fluorophenyl)acetamide]: the “Human P2X4 HEK Cells” value stood at 93% and the pIC50 was 6.18.
For `CC(=O)N(c1ccc(F)cc1)c1cc(NC(=O)Cc2ccc(F)cc2Cl)cnn1` [Example 190, N-{5-[2-(2-chloro-4-fluorophenyl)acetamido]pyridazin-3-yl}-N-(4-fluorophenyl)acetamide], the “Human P2X4 HEK Cells” value was 95% and the pIC50 was 6.15.
As to `CC(=O)N(c1ccc(F)cc1)c1cc(NC(=O)Cc2cccc(F)c2Cl)cnn1` [Example 191, N-{5-[2-(2-chloro-3-fluorophenyl)acetamido]pyridazin-3-yl}-N-(4-fluorophenyl)acetamide], the “Human P2X4 HEK Cells” value was 92% and the pIC50 is 6.13.
Taken in the same sequence, the figures for `CC(=O)N(c1ccc(F)cc1)c1cc(NC(=O)Cc2ccccc2Cl)cnn1` [Example 192, N-{5-[2-(2-chlorophenyl)acetamido]pyridazin-3-yl}-N-(4-fluorophenyl)acetamide] were 90% and 6.12.
With `CC(=O)N(c1ccc(F)cc1)c1cc(NC(=O)Cc2c(Cl)cccc2Cl)cnn1` [Example 193, N-{5-[2-(2,6-dichlorophenyl)acetamido]pyridazin-3-yl}-N-(4-fluorophenyl)acetamide], the “Human P2X4 HEK Cells” value stood at 93% and the negative-log IC50 (pIC50) is 6.06.
The corresponding values for `CC(=O)N(c1cccc(F)c1)c1cc(NC(=O)Cc2c(Cl)cccc2Cl)cnn1` [Example 194, N-{5-[2-(2,6-dichlorophenyl)acetamido]pyridazin-3-yl}-N-(3-fluorophenyl)acetamide] are 96% and 6.39.
Regarding `CC(=O)N(c1cccc(F)c1)c1cc(NC(=O)Cc2cccc(F)c2Cl)cnn1` [Example 195, N-{5-[2-(2-chloro-3-fluorophenyl)acetamido]pyridazin-3-yl}-N-(3-fluorophenyl)acetamide], the “Human P2X4 HEK Cells” value turned out to be 95% and the pIC50 is 6.31.
The corresponding values for `CC(=O)N(c1cccc(F)c1)c1cc(NC(=O)Cc2ccccc2Cl)cnn1` [Example 196, N-{5-[2-(2-chlorophenyl)acetamido]pyridazin-3-yl}-N-(3-fluorophenyl)acetamide] are 94% and 6.26.
The corresponding values for `CC(=O)N(c1cccc(F)c1)c1cc(NC(=O)Cc2c(F)cccc2Cl)cnn1` [Example 197, N-{5-[2-(2-chloro-6-fluorophenyl)acetamido]pyridazin-3-yl}-N-(3-fluorophenyl)acetamide] are 93% and 6.17.
Take `CC(=O)N(c1cccc(F)c1)c1cc(NC(=O)Cc2ccc(F)cc2Cl)cnn1` [Example 198, N-{5-[2-(2-chloro-4-fluorophenyl)acetamido]pyridazin-3-yl}-N-(3-fluorophenyl)acetamide]: the “Human P2X4 HEK Cells” value is on record as 96% and the pIC50 is 6.03.
Taken in the same sequence, the figures for `CC(=O)N(c1ccc(F)c(F)c1)c1cc(NC(=O)Cc2ccccc2Cl)cnn1` [Example 199, N-{5-[2-(2-chlorophenyl)acetamido]pyridazin-3-yl}-N-(3,4-difluorophenyl)acetamide] were 86% and 6.35.
Taken in the same sequence, the figures for `CC(=O)N(c1ccc(F)c(F)c1)c1cc(NC(=O)Cc2c(Cl)cccc2Cl)cnn1` [Example 200, N-{5-[2-(2,6-dichlorophenyl)acetamido]pyridazin-3-yl}-N-(3,4-difluorophenyl)acetamide] were 91% and 6.33.
Taken in the same sequence, the figures for `CC(=O)N(c1ccc(F)c(F)c1)c1cc(NC(=O)Cc2cccc(F)c2Cl)cnn1` [Example 201, N-{5-[2-(2-chloro-3-fluorophenyl)acetamido]pyridazin-3-yl}-N-(3,4-difluorophenyl)acetamide] were 89% and 6.29.
In the case of `CC(=O)N(c1ccc(F)c(F)c1)c1cc(NC(=O)Cc2ccc(F)cc2Cl)cnn1` [Example 202, N-{5-[2-(2-chloro-4-fluorophenyl)acetamido]pyridazin-3-yl}-N-(3,4-difluorophenyl)acetamide], the “Human P2X4 HEK Cells” value worked out at 94% and the pIC50 was 6.25.
The corresponding values for `CC(=O)N(c1ccc(F)c(F)c1)c1cc(NC(=O)Cc2c(F)cccc2Cl)cnn1` [Example 203, N-{5-[2-(2-chloro-6-fluorophenyl)acetamido]pyridazin-3-yl}-N-(3,4-difluorophenyl)acetamide] are 86% and 6.13.
`CC(=O)N(c1cc(F)cc(F)c1)c1cc(NC(=O)Cc2c(Cl)cccc2Cl)cnn1` [Example 204, N-{5-[2-(2,6-dichlorophenyl)acetamido]pyridazin-3-yl}-N-(3,5-difluorophenyl)acetamide]: the “Human P2X4 HEK Cells” value is listed as 95% and the negative logarithm of the IC50 (pIC50) was 6.42.
Taken in the same sequence, the figures for `CC(=O)N(c1cc(F)cc(F)c1)c1cc(NC(=O)Cc2ccccc2Cl)cnn1` [Example 205, N-{5-[2-(2-chlorophenyl)acetamido]pyridazin-3-yl}-N-(3,5-difluorophenyl)acetamide] were 93% and 6.36.
As for `CC(=O)N(c1cc(F)cc(F)c1)c1cc(NC(=O)Cc2cccc(F)c2Cl)cnn1` [Example 206, N-{5-[2-(2-chloro-3-fluorophenyl)acetamido]pyridazin-3-yl}-N-(3,5-difluorophenyl)acetamide], the “Human P2X4 HEK Cells” value is on record as 93% and the pIC50 was 6.35.
The corresponding values for `CC(=O)N(c1cc(F)cc(F)c1)c1cc(NC(=O)Cc2ccc(F)cc2Cl)cnn1` [Example 207, N-{5-[2-(2-chloro-4-fluorophenyl)acetamido]pyridazin-3-yl}-N-(3,5-difluorophenyl)acetamide] are 96% and 6.32.
The corresponding values for `CC(=O)N(c1cc(F)cc(F)c1)c1cc(NC(=O)Cc2c(F)cccc2Cl)cnn1` [Example 208, N-{5-[2-(2-chloro-6-fluorophenyl)acetamido]pyridazin-3-yl}-N-(3,5-difluorophenyl)acetamide] are 91% and 6.17.
